Assay results taken from patent publication US9481885B2, “Methods and compositions related to miR-21 and miR-29a, exosome inhibition, and cancer metastasis” (Ohio State Innovation Foundation, priority 2011, dated 2016).

Target: T1, human TLR7 (Homo sapiens, UniProt Q9NYK1)
T1 construct: host or cells: HEK-Blue TLR7 293 (TLR7-HEK-293)
T1 sequence (Q9NYK1 27-1049): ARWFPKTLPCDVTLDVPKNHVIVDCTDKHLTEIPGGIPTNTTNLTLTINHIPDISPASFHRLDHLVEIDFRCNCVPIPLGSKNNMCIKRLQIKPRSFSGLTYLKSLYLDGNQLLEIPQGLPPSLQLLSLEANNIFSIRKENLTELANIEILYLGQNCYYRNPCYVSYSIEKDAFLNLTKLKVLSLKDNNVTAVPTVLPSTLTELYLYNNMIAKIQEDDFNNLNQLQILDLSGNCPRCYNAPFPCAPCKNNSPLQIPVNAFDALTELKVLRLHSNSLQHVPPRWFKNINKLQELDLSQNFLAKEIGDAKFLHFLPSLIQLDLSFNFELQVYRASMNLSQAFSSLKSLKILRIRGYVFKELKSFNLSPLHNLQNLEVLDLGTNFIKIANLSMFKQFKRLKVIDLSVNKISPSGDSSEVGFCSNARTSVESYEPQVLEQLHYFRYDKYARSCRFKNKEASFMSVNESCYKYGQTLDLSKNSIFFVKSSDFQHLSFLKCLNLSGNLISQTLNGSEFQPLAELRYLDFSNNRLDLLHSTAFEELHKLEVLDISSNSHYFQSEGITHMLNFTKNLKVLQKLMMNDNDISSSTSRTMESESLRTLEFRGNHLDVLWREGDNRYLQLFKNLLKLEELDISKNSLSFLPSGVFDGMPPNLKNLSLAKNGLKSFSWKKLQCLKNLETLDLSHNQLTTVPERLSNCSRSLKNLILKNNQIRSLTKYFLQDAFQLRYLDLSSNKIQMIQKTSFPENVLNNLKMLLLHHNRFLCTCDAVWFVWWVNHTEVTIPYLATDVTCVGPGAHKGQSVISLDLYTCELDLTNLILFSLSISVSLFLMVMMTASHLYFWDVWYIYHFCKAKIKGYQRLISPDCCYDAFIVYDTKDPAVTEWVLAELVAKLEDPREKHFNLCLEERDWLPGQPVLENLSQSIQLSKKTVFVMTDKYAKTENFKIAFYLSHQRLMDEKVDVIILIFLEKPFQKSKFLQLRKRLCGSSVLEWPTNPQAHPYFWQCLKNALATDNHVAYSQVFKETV
Assay: NF-κB reporter assay (QUANTI-Blue) in TLR7-HEK-293 cells
Assay type: cell-based
Conditions: Dotap formulations of miRNA
Experimental: To investigate whether miRNA-induced activation of TLRs also occurs in human cells, an NF-κB reporter assay was performed in HEK-293 cells. NF-κB, a transcription factor modulating the expression of several cytokine genes, is activated by several TLRs, including the only ssRNA-binding human TLRs, TLR7 and TLR8. Therefore, we treated HEK-293 cells expressing human TLR7 or TLR8 (hereafter, TLR7- and TLR8-HEK-293 cells, respectively) with Dotap alone or with Dotap formulations of miR-16, -21, -29a, or -147 and performed an NF-κB reporter assay. As positive controls Gardiquimod and ssRNA40 were used, specific agonists of TLR7 and TLR8, respectively. […] To confirm this conclusion, transfected were TLR8-HEK-293 cells with a plasmid encoding a dominant negative form of TLR8 (TLR8DN) and treated these cells with the miRNAs of interest. In TLR8DN cells, the activation of NF-κB by miR-21 and miR-29a was abolished (FIG. 3F). […] NF-κB activity was assessed by QUANTI-Blue Assay (Invivogen). […] Levels of SEAP can be easily determined with QUANTI-Blue, a detection medium that turns purple/blue in the presence of alkaline phosphatase. […] The plate was then incubated at 37° C. for 1-3 h and SEAP levels were determined by reading the plate with a spectrophotometer at 620-655 nm (SpectraMax, Molecular Devices).

miR-147: synthetic mature miRNA (SEQ ID NO: 3), sequence similar to RNA33, Dotap formulation (GUGUGUGGAAAUGCUUCUGC; DOTAP formulation, further chemistry not given here)
NF-κB activation: only in TLR8-HEK-293 cells
